Structures can show the parent of a compound that is named as a salt.
Assays:
[1] = test system: APP mutant transgenic mice; test: Morris water maze, wild and APP mutant transgenic mice; assay type: in vivo, mouse; conditions: daily i.p. for 6 months, FIG. 6
From the text: The neuro- and memoryprotective effect of the compounds of invention was studied on wild and APP mutant transgenic mice. These mice express high levels of mutant beta-amyloid and, with increasing age, develop both substantial amyloid plaque load and memory deficits. Spatial memory disfunction [with the Morris water maze (MWM) behavioural task assay] and histological assays (cell density, astroglial response, tau-pathology, amyloid-histology and dendritic spine density) in the hippocampal (HC) region (key area for the memory-function) were performed.
The Morris water navigation task is a behavioral procedure widely used in behavioral neuroscience to study spatial learning and memory. The classic measure of learning is latency, which is the time it takes to find the platform after repeating the task daily.
16 adult female APP+ transgenic and 16 adult female wild type mice were the subjects of the experiment. The animals were housed in sterile mouse cages with a natural dark/light cycle, they had free access to food and water throughout the experiment. After arrival, the mice were daily gently handled for a week. […]
Spatial learning and memory were assessed in a circular pool (diameter: 130 cm, height: 60 cm), filled with water (23±1° C.) and made opaque with milk. […]
The data were recorded and evaluated automatically by using a video tracking system. […]

[2] = test system: APP mutant transgenic mice; test: Hippocampal histology after Morris water maze (cresyl violet, tau immunohistochemistry, Golgi staining); assay type: in vivo, mouse
Method: After the Morris water maze task the animals were deeply anesthetized, and transcardialy perfused with 10 ml 4° C. phosphate-buffered saline solution (PBS), followed by 30 ml of 4° C. paraformaldehyde solution (4% in phosphate buffer, pH 7.4). The brains were removed and postfixed for 24 h in the same fixative (4° C.) and subsequently cryoprotected in 30% sucrose solution for 72 h (4° C.). Brains were cut on a cryostat in 30 μm hippocampal coronal sections, and the slices were collected and stored at 4° C. in PBS for free floating immunohistochemistry.
Cresyl violet staining (Nissl staining) is used for neuronal tissue; the stain binds to the acidic components of the neuronal cytoplasm, showing the number of functioning neurons. Slides were stained into the filtered 1% crezyl violet solution for 5 min. and were dehydrated in 50% 70%, 95%, 2×100% ethanol for 1 minute each. After that slides were placed in xylene for another 10 minutes, and coversliped.
Neurofibrillary tangles (NTFs) are intraneuronal aggregates; these are abnormal accumulations associated with neurodegenerative diseases. To visualize the presence of these structures, we used for immunostaining human PHF-tau MAb(clone AT100) primer antibody at 1:800 dilution in PBS (pH 7.4).
The methodological steps in all three immunohistological techniques were the same. After quenching of endogenous peroxidase activity and a blocking step, the sections were incubated overnight at 4° C. with the primary antibody in the presence of 20% goat serum and Triton X-100 0.2%. On the following day, the sections were washed in PBS and incubated for 1 h at room temperature with the secondary biotinylated goat anti-mouse antibody (Vector Laboratories, Burlingame, Calif., USA, 1:400). […]
Dendritic spines change their density after a CNS injury, to visualize this effect, we made Golgi staining. […] The slides were analyzed with confocal light microscopy, we counted dendritic spines 100 μm tong on hippocampal pyramidal cells, and start point was 100 μm farther from the stoma. […]

[3] = test system: B6SJL-Tg(SOD1*G93A)1Gur/J mice; test: Lifespan of G93A ALS mouse strain; assay type: in vivo
From the text: Amyotrophic lateral sclerosis (ALS) is a fatal neurodegenerative disease, caused by the death of motor neurons mainly in the spinal cord. The main form of familiar (genetic or inherited) ALS is caused by the mutation of superoxide dismutase 1 (SOD1) gene, which results in […] amyloid-like aggregations and progressive neuronal degenerations. […] The “golden standard” of preclinical ALS drug tests is the use of a specific transgenic mouse strain, which harbors high-copy number of human mutated SOD1 gene, having a mutation of G93A.
The effect of Ex. 23 was investigated on lifespan of G93A ALS mouse strain. A total of 33 transgenic female mice (B6SJL-Tg(SOD1*G93A)1Gur/J) were bred from 4 breeding pairs. The breeding pairs were purchased from the Jackson Laboratory (jax.org). The mice were individually housed in an IVC rack. Standard food pellets and water was available ad libidum. Body weight was monitored daily. The compound Ex. 23 was freshly dissolved in saline every day, and was administered daily intraperitoneally at the onset of symptoms in 10 mg/bwkg. Symptom onset was determined according to ALS-TDI neurological score. Mice treated with Ex. 23 lived longer (FIG. 10) than untreated mice (mean survival 143±3 days; n=8 and 132±3 days; n=25, respectively).

COC(=O)C1=C(CCN(C)C)N(C)C(CCN(C)C)=C(C(=O)OC)C1c1ccc(C(F)(F)F)cc1 [Example 23, Dimethyl 4-(4-trifuoromethylphenyl)-2,6-bis-(2-dimethylaminoethyl)-1-methyl-1,4-dihydropyridine-3,5-dicarboxylate dihydrochloride]
spatial memory, time to find the hidden platform in Morris water maze [1]: enhances the ability of both the wild type and the memory deficit mutant mice to find the hidden platform | Golgi staining, dendritic spine density ([2]; hippocampal pyramidal cells): the spine density was the highest in the APP mutant compound of Ex. 23 treated group | tau-immunohistochemistry ([2]; hippocampus, APP mutant mice): could inhibit the taupathology | cresyl-violet staining, alive neurons ([2]; hippocampus, versus negative control group): more alive neurons | mean survival ([3]; 10 mg/bwkg daily i.p. from onset of symptoms, n=8, FIG. 10): 143 ± 3 days | In vivo efficacy ([3]; model in which efficacy was shown): ALS
